Experimental data taken from patent US11932658B2 (BRISTOL-MYERS SQUIBB COMPANY, priority 2016, dated 2024).
pIC50: −log10 of the molar value.

biological target: T1, PAR4 (Homo sapiens, UniProt Q96RI0); experiment: PAR4 FLIPR assay (antagonism of agonist peptide-induced calcium mobilization); assay type: cell-based
T1 construct: expressed in transfected cells; host or cells: HEK293 PAR4 Clone 1.2A (BMS Arctic ID 383940)
T1 sequence (Q96RI0 18-385): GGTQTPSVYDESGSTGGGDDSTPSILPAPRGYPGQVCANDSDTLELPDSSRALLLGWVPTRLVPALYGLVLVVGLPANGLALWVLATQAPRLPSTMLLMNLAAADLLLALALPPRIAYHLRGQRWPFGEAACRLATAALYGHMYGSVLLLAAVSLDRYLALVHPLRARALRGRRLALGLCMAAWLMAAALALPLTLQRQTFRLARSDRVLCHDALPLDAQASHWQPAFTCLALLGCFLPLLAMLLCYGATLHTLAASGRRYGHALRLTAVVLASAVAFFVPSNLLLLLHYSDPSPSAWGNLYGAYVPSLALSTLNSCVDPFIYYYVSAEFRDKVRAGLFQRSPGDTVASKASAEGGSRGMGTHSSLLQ
Procedure, shortened: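 Antagonism was taken as block of calcium mobilization evoked by the agonist peptide H-Ala-Phe(4-F)-Pro-Gly-Trp-Leu-Val-Lys-Asn-[…]-NH2, added after 30 min room-temperature compound preincubation in dye-loaded PAR4-transfected HEK293 cells (endogenous PAR1). Fluorescence was read on FDSS, with compound addition alone used as the agonist counter-screen; values come from 11-point concentration-response curves.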

| SMILES | pIC50 |
| --- | --- |
| COc1cnc2c(-c3nc4c(C)cc5c(c4s3)OCC(COC(=O)Nc3cccnc3)O5)cc(Cl)cc2n1 (stereo not shown) [Example 95, (2-(7-chloro-2-methoxyquinoxalin-5-yl)-4-methyl-7,8-dihydro-[1,4]dioxino[2′,3′:3,4]benzo[1,2-d]thiazol-7-yl)methyl pyridin-3-ylcarbamate] | 6.85 |
| COc1cnc2c(-c3nc4c(C)cc5c(c4s3)OCC(COC(=O)Nc3ccc(F)nc3)O5)cc(Cl)cc2n1 (stereo not shown) [Example 96, (2-(7-chloro-2-methoxyquinoxalin-5-yl)-4-methyl-7,8-dihydro-[1,4]dioxino[2′,3′:3,4]benzo[1,2-d]thiazol-7-yl)methyl (6-fluoropyridin-3-yl)carbamate] | 7.92 |
| COc1cnc2c(-c3nc4c(C)cc5c(c4s3)OCC(COC(=O)Nc3ccc(C)nc3)O5)cc(Cl)cc2n1 (stereo not shown) [Example 97, (2-(7-chloro-2-methoxyquinoxalin-5-yl)-4-methyl-7,8-dihydro-[1,4]dioxino[2′,3′:3,4]benzo[1,2-d]thiazol-7-yl)methyl (6-methylpyridin-3-yl)carbamate] | 7.19 |
| COc1ccc(NC(=O)OC[C@H]2COc3c(cc(C)c4nc(-c5cc(CO)cc6nc(OC)cnc56)sc34)O2)cn1 [Example 98, (R)-(2-(7-(hydroxymethyl)-2-methoxyquinoxalin-5-yl)-4-methyl-7,8-dihydro-[1,4]dioxino[2′,3′:3,4]benzo[1,2-d]thiazol-7-yl)methyl (6-methoxypyridin-3-yl)carbamate] | 8.85 |
| COc1cnc2c(-c3nc4c(C)cc5c(c4s3)OC[C@H](COC(=O)Nc3ccnc(C)c3)O5)cc(CO)cc2n1 [Example 99, (R)-(2-(7-(hydroxymethyl)-2-methoxyquinoxalin-5-yl)-4-methyl-7,8-dihydro-[1,4]dioxino[2′,3′:3,4]benzo[1,2-d]thiazol-7-yl)methyl (2-methylpyridin-4-yl)carbamate] | 8.70 |
| COc1cnc2c(-c3nc4c(C)cc5c(c4s3)OC[C@H](COC(=O)Nc3ccc(C)nc3)O5)cc(CO)cc2n1 [Example 100, (R)-(2-(7-(hydroxymethyl)-2-methoxyquinoxalin-5-yl)-4-methyl-7,8-dihydro-[1,4]dioxino[2′,3′:3,4]benzo[1,2-d]thiazol-7-yl)methyl (6-methylpyridin-3-yl)carbamate] | 8.74 |
| COc1cnc2c(-c3nc4c(C)cc5c(c4s3)OC[C@H](COC(=O)Nc3cccnc3)O5)cc(CO)cc2n1 [Example 101, (R)-(2-(7-(hydroxymethyl)-2-methoxyquinoxalin-5-yl)-4-methyl-7,8-dihydro-[1,4]dioxino[2′,3′:3,4]benzo[1,2-d]thiazol-7-yl)methyl pyridin-3-ylcarbamate] | 8.55 |
| COc1cnc2c(-c3nc4ccc5c(c4s3)OC[C@H](COC(=O)Nc3ccc(C)nc3)O5)cc(C)cc2n1 [Example 102, (R)-(2-(2-methoxy-7-methylquinoxalin-5-yl)-7,8-dihydro-[1,4]dioxino[2′,3′:3,4]benzo[1,2-d]thiazol-7-yl)methyl (6-methylpyridin-3-yl)carbamate] | 8.64 |
| COc1cnc2c(-c3nc4ccc5c(c4s3)OC[C@H](COC(=O)Nc3cnc(C)nc3)O5)cc(C)cc2n1 [Example 103, (R)-(2-(2-methoxy-7-methylquinoxalin-5-yl)-7,8-dihydro-[1,4]dioxino [2′,3′:3,4]benzo[1,2-d]thiazol-7-yl)methyl (2-methylpyrimidin-5-yl)carbamate] | 8.55 |
| COc1ccc(NC(=O)OC[C@H]2COc3c(ccc4nc(-c5cc(C)cc6nc(OC)cnc56)sc34)O2)cn1 [Example 104, (R)-(2-(2-methoxy-7-methylquinoxalin-5-yl)-7,8-dihydro-[1,4]dioxino[2′,3′:3,4]benzo[1,2-d]thiazol-7-yl)methyl (6-methoxypyridin-3-yl)carbamate] | 8.72 |
| COc1cnc2c(-c3nc4ccc5c(c4s3)OC[C@H](COC(=O)Nc3ccc(C#N)nc3)O5)cc(C)cc2n1 [Example 105, (R)-(2-(2-methoxy-7-methylquinoxalin-5-yl)-7,8-dihydro-[1,4]dioxino[2′,3′:3,4]benzo[1,2-d]thiazol-7-yl)methyl (6-cyanopyridin-3-yl)carbamate] | 8.80 |
| COc1cnc2c(-c3nc4ccc5c(c4s3)OC[C@H](COC(=O)Nc3ccc4[nH]c(=O)oc4c3)O5)cc(C)cc2n1 [Example 106, (R)-(2-(2-methoxy-7-methylquinoxalin-5-yl)-7,8-dihydro-[1,4]dioxino[2′,3′:3,4]benzo [1,2-d]thiazol-7-yl)methyl (2-oxo-2,3-dihydrobenzo[d]oxazol-6-yl)carbamate] | 8.70 |
| COc1cnc2c(-c3nc4ccc5c(c4s3)OC[C@H](COC(=O)Nc3cnc4[nH]ccc4c3)O5)cc(C)cc2n1 [Example 107, (R)-(2-(2-methoxy-7-methylquinoxalin-5-yl)-7,8-dihydro-[1,4]dioxino[2′,3′:3,4]benzo [1,2-d]thiazol-7-yl)methyl 1H-pyrrolo[2,3-b]pyridin-5-ylcarbamate] | 8.77 |
| COc1cnc2c(-c3nc4ccc5c(c4s3)OC[C@H](COC(=O)Nc3cccnc3)O5)cc(C)cc2n1 [Example 108, (R)-(2-(2-methoxy-7-methylquinoxalin-5-yl)-7,8-dihydro-[1,4]dioxino[2′,3′:3,4]benzo[1,2-d]thiazol-7-yl)methyl pyridin-3-ylcarbamate] | 8.74 |
| COc1cnc2c(-c3nc4ccc5c(c4s3)OC[C@H](COC(=O)Nc3ccc(Br)nc3)O5)cc(C)cc2n1 [Example 109, (R)-(2-(2-methoxy-7-methylquinoxalin-5-yl)-7,8-dihydro-[1,4]dioxino[2′,3′:3,4]benzo[1,2-d]thiazol-7-yl)methyl (6-bromopyridin-3-yl)carbamate] | 8.59 |
| C=Cc1ccc(NC(=O)OC[C@H]2COc3c(ccc4nc(-c5cc(C)cc6nc(OC)cnc56)sc34)O2)cn1 [Example 110, (R)-(2-(2-methoxy-7-methylquinoxalin-5-yl)-7,8-dihydro-[1,4]dioxino[2′,3′:3,4]benzo[1,2-d]thiazol-7-yl)methyl (6-vinylpyridin-3-yl)carbamate] | 8.80 |
| COc1cnc2c(-c3nc4ccc5c(c4s3)OC[C@H](COC(=O)Nc3ccc([C@H](O)CO)nc3)O5)cc(C)cc2n1 [Example 111, ((R)-2-(2-methoxy-7-methylquinoxalin-5-yl)-7,8-dihydro-[1,4]dioxino[2′,3′:3,4]benzo [1,2-d]thiazol-7-yl)methyl (6-((S)-1,2-dihydroxyethyl)pyridin-3-yl)carbamate] | 8.64 |
| COc1cnc2c(-c3nc4ccc5c(c4s3)OC[C@H](COC(=O)Nc3ccc(F)nc3)O5)cc(C)cc2n1 [Example 112, (R)-(2-(2-methoxy-7-methylquinoxalin-5-yl)-7,8-dihydro-[1,4]dioxino[2′,3′:3,4]benzo[1,2-d]thiazol-7-yl)methyl (6-fluoropyridin-3-yl)carbamate] | 8.15 |
| COc1cnc2c(-c3nc4ccc5c(c4s3)OC[C@H](COC(=O)Nc3cncc(C#N)c3)O5)cc(C)cc2n1 [Example 113, (R)-(2-(2-methoxy-7-methylquinoxalin-5-yl)-7,8-dihydro-[1,4]dioxino[2′,3′:3,4]benzo[1,2-d]thiazol-7-yl)methyl (5-cyanopyridin-3-yl)carbamate] | 8.72 |
| COc1cnc2c(-c3nc4ccc5c(c4s3)OC[C@H](COC(=O)Nc3ccc(C(=O)N4CCOCC4)cc3)O5)cc(C)cc2n1 [Example 114, (R)-(2-(2-methoxy-7-methylquinoxalin-5-yl)-7,8-dihydro-[1,4]dioxino[2′,3′:3,4]benzo [1,2-d]thiazol-7-yl)methyl (4-(morpholine-4-carbonyl)phenyl)carbamate] | 9.00 |
| COc1cnc2c(-c3nc4c(C)cc5c(c4s3)OCC(COC(=O)Nc3ccc(Cl)nc3)O5)cc(C)cc2n1 (stereo not shown) [Example 115, (2-(2-methoxy-7-methylquinoxalin-5-yl)-4-methyl-7,8-dihydro-[1,4]dioxino[2′,3′:3,4]benzo [1,2-d]thiazol-7-yl)methyl (6-chloropyridin-3-yl)carbamate] | 8.85 |
| COc1cnc2c(-c3nc4c(C)cc5c(c4s3)OCC(COC(=O)Nc3ccc(N(C)C)nc3)O5)cc(C)cc2n1 (stereo not shown) [Example 116, (2-(2-methoxy-7-methylquinoxalin-5-yl)-4-methyl-7,8-dihydro-[1,4]dioxino[2′,3′:3,4]benzo[1,2-d]thiazol-7-yl)methyl (6-(dimethylamino)pyridin-3-yl)carbamate] | 8.47 |
| COc1cnc2c(-c3nc4c(C)cc5c(c4s3)OCC(COC(=O)Nc3ccnc(-c4ccccc4)c3)O5)cc(C)cc2n1 (stereo not shown) [Example 117, (2-(2-methoxy-7-methylquinoxalin-5-yl)-4-methyl-7,8-dihydro-[1,4]dioxino[2′,3′:3,4]benzo[1,2-d]thiazol-7-yl)methyl (2-phenylpyridin-4-yl)carbamate] | 8.96 |
| COc1cnc2c(-c3nc4c(C)cc5c(c4s3)OCC(COC(=O)Nc3ccnc(F)c3)O5)cc(C)cc2n1 (stereo not shown) [Example 118, (2-(2-methoxy-7-methylquinoxalin-5-yl)-4-methyl-7,8-dihydro-[1,4]dioxino[2′,3′:3,4]benzo[1,2-d]thiazol-7-yl)methyl (2-fluoropyridin-4-yl)carbamate] | 7.80 |
| COc1cnc2c(-c3nc4c(C)cc5c(c4s3)OCC(COC(=O)Nc3cnc(C)c(C)c3)O5)cc(C)cc2n1 (stereo not shown) [Example 119, (2-(2-methoxy-7-methylquinoxalin-5-yl)-4-methyl-7,8-dihydro-[1,4]dioxino[2′,3′:3,4]benzo[1,2-d]thiazol-7-yl)methyl (5,6-dimethylpyridin-3-yl)carbamate] | 8.68 |
